# Experiments:
# CCK receptor (brain) = biological target: T1, CCK receptor (brain) (Cavia porcellus, UniProt H0VZC5); test: CCK Receptor Binding (Brain), inhibition of 125I-CCK-8 binding; set-up: species or system guinea pig (male Hartley); settings: guinea pig cortex membranes, 50 pM 125I-CCK-8, pH 6.5, 25° C., 2 hours
# T1 construct: the cortex was removed and homogenized in 25 mL ice-cold 0.32M sucrose; from tissue; host or cells: guinea pig brain cortex P2 membranes
# Description: 2. CCK Receptor Binding (Brain)
# CCK-8 sulphated was radiolabelled and the binding was performed according to the description for the pancreas method with minor modifications.
# Male Hartley guinea pigs (300-500 g) were sacrificed by decapitation and the cortex was removed and homogenized in 25 mL ice-cold 0.32M sucrose. The homogenates were centrifuged at 1000 g for 10 minutes and the resulting supernatant was recentrifuged at 20,000 g for 20 minutes. The P2 pellet was resuspended in binding assay buffer (20 mM HEPES, 5 mM MgCl2, 0.25 mg/ml bacitracin, 1 mM EGTA pH 6.5 at 25° C.), using a Teflon (trademark) homogenizer (5 strokes at 500 rpm) to give a final concentration of 10 mg original wet weight/1.2 ml buffer. For the binding assay, 50 μl of buffer (for total binding) or unlabelled CCK-8 sulphated to give a final concentration of 1 μM (for nonspecific binding) or the compounds of Formula I (for determination of inhibition of ^125 I-CCK-8 binding) and 50 μl of 500 pM ^125 I-CCK-8 (i.e. final concentration of 50 pM) were added to 400 μl of the membrane suspensions in microfuge tubes. All assays were run in duplicate. […] The radioactivity on the filters was counted with a LKB gamma counter. […]
# CCK receptor (pancreas) = biological target: T2, CCK receptor (pancreas) (Rattus norvegicus, UniProt P30551); test: CCK Receptor Binding (Pancreas), inhibition of 125I-CCK-8 binding; set-up: species or system rat (male Sprague-Dawley); settings: rat pancreas membranes, 50 pM 125I-CCK-8, pH 6.5, 25° C., 2 hours
# T2 construct: The whole pancreas was dissected free of fat tissue and was homogenized; from tissue; host or cells: rat whole pancreas membranes
# T2 sequence (P30551 1-444): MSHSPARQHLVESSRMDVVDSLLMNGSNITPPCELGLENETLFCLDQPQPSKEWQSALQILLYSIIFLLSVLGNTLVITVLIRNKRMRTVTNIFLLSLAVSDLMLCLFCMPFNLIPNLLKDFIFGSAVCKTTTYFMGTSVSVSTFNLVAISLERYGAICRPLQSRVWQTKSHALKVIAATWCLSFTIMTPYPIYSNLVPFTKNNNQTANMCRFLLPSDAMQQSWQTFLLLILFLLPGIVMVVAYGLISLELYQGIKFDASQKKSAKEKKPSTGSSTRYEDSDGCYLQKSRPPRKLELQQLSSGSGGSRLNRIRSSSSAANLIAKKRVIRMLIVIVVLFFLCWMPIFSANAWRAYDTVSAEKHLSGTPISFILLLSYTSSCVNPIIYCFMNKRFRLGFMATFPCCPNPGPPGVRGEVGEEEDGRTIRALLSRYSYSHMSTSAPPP
# Description: 1. CCK Receptor Binding (Pancreas)
# CCK-8 sulphated was radiolabelled with ^125 I-Bolton Hunter reagent (2000 Ci/mmole). Receptor binding was performed according to Chang and Lotti (Proc. Natl. Acad. Sci. 83, 4923-4926, 1986) with minor modifications.
# Male Sprague-Dawley rats (150-200 g) were sacrificed by decapitation. The whole pancreas was dissected free of fat tissue and was homogenized in 25 volumes of ice-cold 10 mM N-2-hydroxyethyl-piperazine-N'-2-ethane sulphonic acid (HEPES) buffer with 0.1% soya bean trypsin inhibitor (pH 7.4 at 25° C.) with a Kinematica Polytron. The homogenates were centrifuged at 47,800 g for 10 min. Pellets were resuspended in 10 volumes of binding assay buffer (20 mM (HEPES)), 1 mM ethylene glycol-bis-(β-aminoethylether-N,N'-tetraacetic acid) (EGTA), 5 mM MgCl2, 150 mM NaCl, bacitracin 0.25 mg/ml, soya bean trypsin inhibitor 0.1 mg/ml, and bovine serum albumin 2 mg/ml pH 6.5 at 25° C.) using a Teflon (trademark) homogenizer, 15 strokes at 500 rpm. The homogenate was further diluted in binding assay buffer to give a final concentration of 0.5 mg original wet weight/1 ml buffer. […] The radioactivity on the filters was counted with a LKB gamma counter. […]
# T1 sequence (H0VZC5 entry or part of it): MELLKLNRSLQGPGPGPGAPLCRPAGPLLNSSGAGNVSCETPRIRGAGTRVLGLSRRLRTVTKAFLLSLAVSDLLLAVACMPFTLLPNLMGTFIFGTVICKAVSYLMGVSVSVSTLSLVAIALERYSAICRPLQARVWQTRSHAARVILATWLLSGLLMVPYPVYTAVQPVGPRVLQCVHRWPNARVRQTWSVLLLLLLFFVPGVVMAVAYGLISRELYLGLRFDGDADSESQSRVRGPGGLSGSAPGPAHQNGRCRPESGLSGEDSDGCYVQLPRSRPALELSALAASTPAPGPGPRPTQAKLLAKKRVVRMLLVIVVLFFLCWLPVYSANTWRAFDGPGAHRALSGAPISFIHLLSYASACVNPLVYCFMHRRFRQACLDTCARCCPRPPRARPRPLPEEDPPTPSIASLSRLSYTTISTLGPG
SMILES,IC50 (CCK receptor (brain)) [nM],IC50 (CCK receptor (pancreas)) [nM]
"CN1C(=O)C(NC(=O)Nc2cccc(C(=O)NS(=O)(=O)c3ccccc3)c2)N=C(c2ccncc2)c2ccccc21 (racemic) [Example 1, N-[3(R,S)-2,3-Dihydro-1-methyl-2-oxo-5-(pyridin-4-yl)-1H-1,4-benzodiazepin-3-yl]-N'-[3-(phenylsulphonylaminocarbonyl)phenyl]urea]",130,790
"CC(C)S(=O)(=O)NC(=O)c1cccc(NC(=O)NC2N=C(c3ccncc3)c3ccccc3N(C)C2=O)c1 (racemic) [Example 2, N-[3(R,S)-2,3-Dihydro-1-methyl-2-oxo-5-(pyridin-4-yl)-1H-1,4-benzodiazepin-3-yl)-N'-[3-(isopropylsulphonylaminocarbonyl)phenyl]urea]",300,1630
